Entries after “also recorded” stand apart in the source; their conditions may differ. Where two headings read alike, the source gives them in different places.
Key:
[1] = Biodistribution of butyrate after oral gavage (LC-MS/MS quantification in plasma and organs); type: in vivo, C57BL/6J mice; conditions: for butyrate level in the liver / butyrate level in the mesenteric LNs: 3 hr and 6 hr post oral administration; for butyrate level in the spleen: 3 hr post oral administration
Method: The specific-pathogen-free (SPF) female C57BL/6J mice were orally administered with 50.4 mg NaBut, 80 mg SerBut, 85.6 mg ThrBut (all containing equivalent 40 mg butyrate), or PBS. At 0.5 hr or 3 hr post administration, blood was collected by cheek bleeding. At 3 hr or 6 hr post administration, the mice were anesthetized under isoflurane and transcardially perfused with at least 30 ml phosphate-buffered saline (PBS) containing 1 mM EDTA. Organs including liver, mesenteric lymph nodes (mLNs), brain, spinal cord, and spleen were collected and frozen in dry ice immediately, and then transfer to −80° C. until further processing.
1:1 v/v acetonitrile (ACN) to water was used to extract butyrate from the plasma or organs. Plasma was mixed 1:1 with ACN/water solution, and then centrifuged to remove the denatured proteins. Organs were weighed and transferred to Lysing Matrix D tubes, and added with ACN/water 1:1 v/v solution followed by sample lysing using FastPrep-24 5G homogenizer (MP Biomedicals). The samples were then centrifuged, and the supernatant were collected for the measuring of butyrate.
Samples were prepared and derivatized as describe in the literature (5, 6). 3-nitrophenylhydrazine (NPH) stock solution was prepared at 0.02 M in water:acetonitrile 1:1 v/v. EDC stock solution (with 1% pyridine added) was prepared at 0.25 M in water:acetonitrile 1:1 v/v. 4-methylvaleric acid was added as internal standard. Samples were mixed with NPH stock and EDC stock at 1:1:1 ratio by volume. The mixture was heated by heating block at 60° C. for 30 min. Samples were then filtered through […] and transferred into HPLC vials and stored at 4° C. before analysis.
The Agilent 6460 Triple Quad MS-MS was used to detect the derivatized butyrate.
Both derivatized butyrate-NPH and 4-methylvaleric-NPH were detected in negative mode. Column: ThermoScientific C18 4.6×50 mm, […], at room temperature. Mobile phase A: water with 0.1% v/v formic acid. Mobile phase B: acetonitrile with 0.1% v/v formic acid. Injection volume: 5.0 μL. Flow rate: 0.5 mL/min. Gradient of solvent: 15% mobile phase B at 0.0 min; 100% mobile phase B at 3.5 min; 100% mobile phase B at 6.0 min; 15% mobile phase B at 6.5 min. The MS conditions were optimized on pure butyrate-NPH or 4-methylvaleric-NPH at 1 mM. The fragment voltage was 135 V and collision energy was set to 18 V. Multiple reaction monitoring (MRM) of 222→137 was assigned to butyrate, and MRM of 250→137 was assigned to 4-methylvaleric acid as internal standard. The ratio between MRM of butyrate and 4-methylvaleric acid was used to quantify the concentration of butyrate. The final butyrate content is each organ is normalized by the organ weight.

[2] = Water solubility (statement); type: physicochemical
[3] = tested on: experimental autoimmune encephalomyelitis (EAE); type: in vivo, C57BL/6 mice; conditions: for Th17 cells (RORγt+% of CD4+ T cells) in the spinal cord: day 20, compared to the PBS group
Description: C57BL/6 female mice (8 weeks old) were purchased from Charles River Laboratories and housed in the animal facility at the University of Chicago for 2 weeks before immunization. All experiments were approved by the Institutional Animal Care and Use Committee of the University of Chicago
Female C57BL/6 mice at the age of week 10 were subcutaneously immunized at the dorsal flanks with an emulsion of MOG35-55 in complete Freund's adjuvant (MOG35-55/CFA Emulsion, Hooke Laboratories) on day 0, followed by i.p. administration of pertussis toxin in PBS on both day 0 and day 1. The mice were treated with PBS or serine butyrate (0.6 mg/g per dose) twice daily from day 2 to day 19. Another group of mice were treated with PBS once (in the morning) and serine butyrate (0.6 mg/g) once (in the afternoon) daily. The development of EAE was monitored and clinical scores were measured daily from day 7 to day 20. The clinical scores were determined based on the Hooke Laboratories scoring criteria (found online at hookelabs.com/services/cro/eae/MouseEAEscoring.html). In brief, EAE clinical scores ranged from a score of 0, corresponding to no obvious changes in motor function compared to non-immunized mice, to a score of 4, corresponding to limp tail and minimal or no movement of hind and/or fore limbs. On day 20, mice from the twice daily PBS or serine butyrate gavage groups were sacrificed. Their blood was collected through cardiac puncture, and spleen, spinal cord, mesenteric lymph nodes (LNs), central nervous system(CNS)-draining LNs (dLNs, including cervical LNs and iliac LNs) were harvested for the immunostaining followed by the flow cytometry analysis. The major cytokines from the plasma and spinal cord after homogenization were analyzed by the LegendPlex (BioLegend).

[4] = 0.5 hr and 3 hr after oral administration (both time points)
[5] = oral, compared to mice treated with NaBut and ThrBut (PBS and sodium butyrate)
[6] = day 20, flow cytometry, twice daily vs PBS
[7] = day 20, flow cytometry, twice daily vs PBS, listed as Serine butyrate
[8] = day 20, flow cytometry, twice daily vs PBS, listed as serine butyrate

CCCC(=O)OC(C)[C@H](N)C(=O)O (stereo in doubt) [ThrBut, O-butyryl L-threonine]
butyrate level in the plasma [1, 4]: did not show high level of butyrate | butyrate level in the liver [1]: high level of butyrate | butyrate level in the mesenteric LNs [1]: high level of butyrate; also recorded: higher accumulation | butyrate level in the spleen [1]: higher level of butyrate; also recorded: higher accumulation | water solubility [2]: water soluble

CCCC(=O)[O-].[Na+] [NaBut, sodium butyrate, reference compound]
butyrate level in the plasma [1, 4]: did not show high level of butyrate

CCCC(=O)OC[C@H](N)C(=O)O [SerBut, O-butyryl L-serine]
butyrate level in the plasma ([1]; 0.5 hr after oral administration, equivalent 40 mg butyrate): dramatically increased | butyrate level in the plasma ([1]; 3 hr after oral administration, equivalent 40 mg butyrate): dropped significantly | butyrate level in the liver [1]: high level of butyrate | butyrate level in the mesenteric LNs [1]: high level of butyrate; also recorded: higher accumulation | butyrate level in the spleen [1]: higher level of butyrate; also recorded: higher accumulation | butyrate level in brain [1, 5]: significantly enhanced; also recorded: significantly increased | butyrate level in spinal cord [1, 5]: significantly enhanced; also recorded: significantly increased | severity of EAE disease development (clinical score) ([3]; 0.6 mg/g per dose oral, twice daily day 2-19, vs PBS, listed as Serine butyrate): attenuates | dose regimen comparison in EAE: twice daily vs single daily dose ([3]; 0.6 mg/g twice daily vs once daily): performed better than a single dose | body weight loss ([3]; EAE mice treated orally): did not observe a significant body weight loss | MHCII expression (gMFI) on dendritic cells and macrophages in the mesenteric LNs ([3]; day 20, compared to PBS-treated mice): significantly lower | Th17 cells (RORγt+% of CD4+ T cells) in the spinal cord ([3]; listed as Serine butyrate): reduced | Th17 cells (RORγt+% of CD4+ T cells) in the spinal cord ([3]; listed as serine butyrate): less Th17 cells | CD80+% and CD86+% of CD11c hi dendritic cells in the spinal cord [3, 6]: significant reduction | cell surface MHCII expression in CD11c hi dendritic cells and CD11b+CD11c- monocytes, spinal cord [3, 6]: similarly marked reduction | MHCII positive dendritic cells and macrophages in the mesenteric LNs [3, 7]: suppresses | immune cell infiltration into the spinal cord (CD11b+, CD11b+CD11c-, F4/80+CD11b+ cells) [3, 7]: inhibits | MHCII positive dendritic cells and macrophages in the mesenteric LNs [3, 8]: significant reduction | immune cell infiltration into the spinal cord (CD11b+, CD11b+CD11c-, F4/80+CD11b+ cells) [3, 8]: significantly suppressed | IFNγ in the spinal cord ([3]; day 20, homogenate supernatant normalized by total protein): minimal IFNγ | Foxp3+CD8+ Tregs in the mesenteric LNs ([3]; day 20, twice daily vs PBS): significant induction | regulatory T cells in the spleen (Foxp3+ or Foxp3+CD25+ of CD4+ T cells) ([3]; day 20, twice daily vs PBS): significantly increased | EAE clinical score of the majority of mice ([3]; twice daily 0.6 mg/g, score scale 0-4): below 1.0 | water solubility [2]: water soluble

CCCC(=O)Oc1ccc(C[C@H](N)C(=O)O)cc1 [TyrBut, O-butyryl L-tyrosine]
water solubility [2]: not highly soluble
